In patent US20140323307A1, “MANAGEMENT METHOD AND MANAGEMENT SYSTEM FOR BIOMASS AT PLANT HARVEST” (Japan Science and Technology Agency, priority 2011, published 2014):

Test system: Arabidopsis thaliana
Conditions: linolenic acid-deficient, linolenic acid-excess and wild-type strains; 2 mM GSH or 1 mM GSSG aqueous solution, 25 mL per three individuals, once a week for 5 weeks; FIG. 9
Method: Each strain of Arabidopsis thaliana tested here was grown in the following manner: seeds of three individuals of each strain of Arabidopsis thaliana were sown in a pot, and grown from when the seeds were sown to when the individuals bore seeds (grown for about 2.5 to 3 months) under the controlled condition where light intensity was approximately 100 μE·m^−2·S^−1, the light and dark cycle was set to 16 hours and 8 hours, and the temperature was 22° C. […] Above-ground parts of the obtained Arabidopsis thaliana were harvested, and dried for five or more days in a dry house having a humidity of 5% and a temperature of 20° C. After they were thoroughly dried, the total biomass of above-ground parts at harvest (dry weight of the entire above-ground parts) and seed yield (dry weight of harvested seeds) for each pot were measured. As for the linolenic acid-deficient strain (triple mutant), only the total biomass of above-ground parts at harvest was measured.

## N[C@@H](CCC(=O)N[C@@H](CS)C(=O)NCC(=O)O)C(=O)O [glutathione]
  biomass at harvest (total biomass of above-ground parts, dry weight; seed yield) compared to the controls: significantly increased in biomass
